In US9624228B2, “Inhibitors of ERK and methods of use” (KURA ONCOLOGY, INC., priority 2013, dated 2017):

These compounds were tested against ERK2 enzyme (Homo sapiens (Human), UniProt P28482) (assay: Inhibition assay of ERK (Z'-LYTE kinase assay, Ser/Thr 3 peptide substrate)). Details: In vitro ERK2 enzyme, 100 μM ATP.
Type: biochemical
Method: The inhibition of ERK activity by the compounds disclosed herein was determined using the Z′-LYTE kinase assay kit (Life Technologies) with a Ser/Thr 3 peptide substrate (Life Technologies) according to manufacturers' instructions. […] The IC50 values for the compounds were determined with 3-fold serial dilutions in duplicate. […] The final DMSO concentration in the assay was 1%. Final reaction volume was 20 μL/well in 384-well plates. Kinase reactions were conducted or 1 hour followed by the assay development reaction (1 hour) in a 20 ul/well in a 384 well plate format.

Chain of ERK2 enzyme (P28482 whole entry): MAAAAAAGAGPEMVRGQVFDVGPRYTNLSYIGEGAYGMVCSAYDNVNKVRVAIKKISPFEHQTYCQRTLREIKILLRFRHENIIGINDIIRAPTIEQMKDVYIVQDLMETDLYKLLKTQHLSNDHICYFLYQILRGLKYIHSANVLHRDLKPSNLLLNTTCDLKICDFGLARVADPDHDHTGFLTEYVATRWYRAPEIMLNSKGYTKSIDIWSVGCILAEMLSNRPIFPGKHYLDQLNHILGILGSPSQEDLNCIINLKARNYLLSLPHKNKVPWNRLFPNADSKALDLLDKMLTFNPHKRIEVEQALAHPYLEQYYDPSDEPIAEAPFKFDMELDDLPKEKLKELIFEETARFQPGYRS

SMILES | IC50 [nM]
COc1ccc(CN2Cc3cc4c(-c5ccnc(C)c5)n[nH]c4cc3NC2=O)cc1 [Compound 10] | < 50
Cc1cc(-c2n[nH]c3cc4c(cc23)CN([C@@H]2CCCN(Cc3cccnc3C(F)(F)F)C2)C(=O)N4)ccn1 [Compound 161] | < 50
Cc1cc(-c2n[nH]c3cc4c(cc23)CN(CCNCc2ccc(F)cc2)C(=O)N4)ccn1 [Compound 175] | < 50
Cc1cc(-c2n[nH]c3cc4c(cc23)CN(CCNCc2cccc(Cl)c2)C(=O)N4)ccn1 [Compound 176] | < 50
Cc1cc(-c2n[nH]c3cc4c(cc23)CN([C@H](C)CO)C(=O)N4)ccn1 [Compound 54] | < 50
O=C1Nc2cc3[nH]nc(N4CCOCC4)c3cc2CN1Cc1cccc(Cl)c1 [Compound 78] | < 50
Cc1cc(-c2n[nH]c3cc4c(cc23)CN([C@@H]2CCCN(CC3CCCCC3)C2)C(=O)N4)ccn1 [Compound 141] | 50 to 250
Cc1cc(-c2n[nH]c3cc4c(cc23)CN(Cc2ccc(Cl)cc2)C(=O)N4)ccn1 [Compound 14] | < 50
COCCN1Cc2cc3c(-c4ccnc(C)c4)n[nH]c3cc2NC1=O [Compound 52] | < 50
Cc1cc(-c2n[nH]c3cc4[nH]c(=O)c(C(C)c5ccccc5)cc4cc23)ccn1 (centres unmarked) [Compound 22] | < 50
COc1ccc(-c2n[nH]c3cc4c(cc23)CN(Cc2ccc(F)cc2F)C(=O)N4)cn1 [Compound 87] | < 50
COc1ncc(-c2n[nH]c3cc4c(cc23)CN([C@@H]2CCCN(Cc3c(F)cccc3OC)C2)C(=O)N4)cn1 [Compound 103] | < 50
Cn1cc(-c2n[nH]c3cc4c(cc23)CN(Cc2ccc(F)c(Cl)c2)C(=O)N4)ccc1=O [Compound 41] | < 50
C[C@H](c1cccc(Cl)c1)N1Cc2cc3c(-c4ccnnc4)n[nH]c3cc2NC1=O [Compound 111] | < 50
Cc1cc(-c2n[nH]c3cc4c(cc23)CN([C@@H]2CCCN(Cc3ccc(F)cn3)C2)C(=O)N4)ccn1 [Compound 132] | < 50
Cc1cc(-c2n[nH]c3cc4c(cc23)CN([C@@H]2CCCN(C(C)c3ccc(F)cc3)C2)C(=O)N4)ccn1 (some centres unmarked) [Compound 179] | 50 to 250
Cc1cc(-c2n[nH]c3cc4c(cc23)CN(C2CN(Cc3ccccc3)C2)C(=O)N4)ccn1 [Compound 191] | < 50
Cc1cc(-c2n[nH]c3cc4c(cc23)CN([C@@H]2CCCN(Cc3ccccn3)C2)C(=O)N4)ccn1 [Compound 171] | 50 to 250
Cc1cc(-c2n[nH]c3cc4c(cc23)CN(C2CN(CCC3CC3)C2)C(=O)N4)ccn1 [Compound 189] | 50 to 250
COc1ncc(-c2n[nH]c3cc4c(cc23)CN(C)C(=O)N4)cn1 [Compound 96] | 50 to 250

SMILES | IC50 [nM]
Cc1cc(-c2n[nH]c3cc4c(cc23)CN(Cc2cc(F)cc(F)c2)C(=O)N4)ccn1 [Compound 7] | < 50
Cc1cc(-c2n[nH]c3cc4c(cc23)CN(C2(c3ccc(F)cc3)CC2)C(=O)N4)ccn1 [Compound 17] | 50 to 250
Cc1cc(-c2n[nH]c3cc4[nH]c(=O)c(C(C)Cc5ccc(F)cc5)cc4cc23)ccn1 (centres unmarked) [Compound 73] | > 1000
Cc1cc(-c2n[nH]c3cc4c(cc23)CN([C@@H]2CCCN(CCC(F)(F)F)C2)C(=O)N4)ccn1 [Compound 178] | < 50
COc1ccc(-c2n[nH]c3cc4c(cc23)CN([C@H](C)c2cccc(Cl)c2)C(=O)N4)cn1 [Compound 74] | 50 to 250
Cc1cc(-c2n[nH]c3cc4c(cc23)CN(C(C)CC(C)C)C(=O)N4)ccn1 (centres unmarked) [Compound 53] | < 50
COc1ncc(-c2n[nH]c3cc4c(cc23)CN(CCc2cccc(Cl)c2)C(=O)N4)cn1 [Compound 86] | < 50
Cc1cc(-c2n[nH]c3cc4c(cc23)CN([C@@H]2CCCN(CCC3CC3)C2)C(=O)N4)ccn1 [Compound 155] | < 50
Cc1cc(-c2n[nH]c3cc4c(cc23)CN([C@H](C)c2ccc(Cl)cc2)C(=O)N4)ccn1 [Compound 16] | < 50
Cc1cc(-c2n[nH]c3cc4c(cc23)CN(Cc2ccc(C(F)(F)F)cc2)C(=O)N4)ccn1 [Compound 12] | 50 to 250
Cc1cc(-c2n[nH]c3cc4c(cc23)CN([C@@H]2CCCN(CCc3ccccc3)C2)C(=O)N4)ccn1 [Compound 145] | < 50
Cc1ncc(-c2n[nH]c3cc4c(cc23)CN(Cc2cccc(Cl)c2)C(=O)N4)cn1 [Compound 90] | < 50
Cc1cc(-c2n[nH]c3cc4c(cc23)CN([C@@H]2CCC[C@H](NCc3ccccc3)C2)C(=O)N4)ccn1 [Compound 177] | < 50
COc1ncc(-c2n[nH]c3cc4c(cc23)CN(Cc2cccc(C#N)c2)C(=O)N4)cn1 [Compound 125] | < 50
O=C1Nc2cc3[nH]nc(-c4ccnnc4)c3cc2CN1[C@@H]1CCCN(Cc2ccccc2F)C1 [Compound 121] | < 50
COc1ncc(-c2n[nH]c3cc4c(cc23)CN(Cc2cccc(Cl)c2)C(=O)N4)cn1 [Compound 68] | < 50
Cc1cc(-c2n[nH]c3cc4[nH]c(=O)n(Cc5ccccc5)c4cc23)ccn1 [Compound 19] | < 50
Cc1cc(-c2n[nH]c3cc4c(cc23)CN(Cc2nccs2)C(=O)N4)ccn1 [Compound 56] | < 50
Cc1cc(-c2n[nH]c3cc4c(cc23)CN(Cc2ccc(F)cc2)C(=O)N4)ccn1 [Compound 30] | < 50

Same assay, conditions: In vitro, ERK2 enzyme 0.47 ng/μL, 100 μM ATP

SMILES | IC50 [nM]
Cc1cc(-c2n[nH]c3cc4c(cc23)CN([C@@H]2CN(CC(F)(F)F)C[C@H]2c2ccccc2)C(=O)N4)cc(C)n1 [Compound 242] | 50 to 250
Cc1cc(-c2n[nH]c3cc4c(cc23)CN([C@@H]2CCN(c3ccc(F)cn3)C2)C(=O)N4)ccn1 [Compound 257] | 50 to 250
Cc1cc(-c2n[nH]c3cc4[nH]c(=O)c(C5CCCN(Cc6cccs6)C5)cc4cc23)ccn1 (centres unmarked) [Compound 378] | 50 to 250
Cc1cc(-c2n[nH]c3cc4c(cc23)CN([C@@H]2CCCN(CC(=O)C(C)C)C2)C(=O)N4)ccn1 [Compound 209] | < 50
Cc1cc(-c2n[nH]c3cc4c(cc23)CN([C@@H]2CCN(C(C)C(F)(F)F)C2)C(=O)N4)ccn1 (some centres unmarked) [Compound 267] | < 50
Cc1cc(-c2n[nH]c3cc4c(cc23)CN([C@@H]2CN(C)C[C@H]2c2ccc(F)cc2)C(=O)N4)cc(C)n1 (racemic) [Compound 305] | 50 to 250
Cc1cc(-c2n[nH]c3cc4[nH]c(=O)c(C5CCCN(Cc6ccccc6)C5)cc4cc23)ccn1 (centres unmarked) [Compound 332] | < 50
Cc1cc(-c2n[nH]c3cc4c(cc23)CN([C@@H]2CCN(CC(F)(F)F)C2)C(=O)N4)cc(C)n1 [Compound 237] | < 50
Cc1cc(-c2n[nH]c3cc4c(cc23)CN([C@@H]2CCCN(CC(=O)C(C)(C)C)C2)C(=O)N4)ccn1 [Compound 203] | < 50
Cc1cc(-c2n[nH]c3cc4c(cc23)CN([C@@H]2CN(C)C[C@H]2c2ccccc2)C(=O)N4)cc(C)n1 [Compound 308] | < 50
Cn1cc(-c2n[nH]c3cc4c(cc23)CN([C@@H]2CCCN(Cc3ccc(F)cc3F)C2)C(=O)N4)cn1 [Compound 281] | < 50
Cc1cc(-c2n[nH]c3cc4c(cc23)CN([C@@H]2CCCN(Cc3csc(C)c3)C2)C(=O)N4)ccn1 [Compound 251] | < 50
Cc1cc(-c2n[nH]c3cc4c(cc23)CN([C@H](C)c2ccccc2)C(=O)N4)cc(C)n1 [Compound 377] | < 50
Cc1cc(-c2n[nH]c3cc4[nH]c(=O)c(C5CCCN(Cc6ccccc6)C5)cc4cc23)cc(C)n1 (centres unmarked) [Compound 360] | 50 to 250
Cc1cnccc1-c1n[nH]c2cc3[nH]c(=O)c(C(C)c4ccccc4)cc3cc12 (centres unmarked) [Compound 343] | 50 to 250
Cc1cc(-c2n[nH]c3cc4c(cc23)CN([C@@H]2CCN(C(C)C)C2)C(=O)N4)ccn1 [Compound 268] | 50 to 250

SMILES | IC50 [nM]
Cc1cc(-c2n[nH]c3cc4c(cc23)CN([C@@H]2CCCN(Cc3ccsc3)C2)C(=O)N4)ccn1 [Compound 252] | < 50
COc1cc(-c2n[nH]c3cc4[nH]c(=O)c(C5CCCN(Cc6ccccc6)C5)cc4cc23)ccn1 (centres unmarked) [Compound 370] | < 50
Cc1cc(-c2n[nH]c3cc4c(cc23)CN(C(C)c2nccs2)C(=O)N4)ccn1 (centres unmarked) [Compound 234] | < 50
Nc1ncc(-c2n[nH]c3cc4c(cc23)CN([C@@H]2CN(CC(F)(F)F)C[C@H]2c2ccccc2)C(=O)N4)cn1 [Compound 351] | < 50
Cn1cc(-c2n[nH]c3cc4c(cc23)CN([C@@H]2CCCN(Cc3cccs3)C2)C(=O)N4)cn1 [Compound 298] | < 50
Cc1cc(-c2n[nH]c3cc4c(cc23)CN(Cc2nc(C)c(C)s2)C(=O)N4)ccn1 [Compound 228] | < 50
Cc1cc(-c2n[nH]c3cc4c(cc23)CN([C@@H]2CCN(CC(F)(F)F)C2)C(=O)N4)ccn1 [Compound 214] | < 50
Cc1cc(-c2n[nH]c3cc4c(cc23)CN([C@H]2CN(CC(F)(F)F)C[C@@H]2c2ccccc2)C(=O)N4)ccn1 [Compound 303] | 250 to 1000
Cc1cc(-c2n[nH]c3cc4c(cc23)CN(C2CCCC2)C(=O)N4)ccn1 [Compound 205] | < 50
CC(c1ccccc1)c1cc2cc3c(-c4cnn(C)c4)n[nH]c3cc2[nH]c1=O (centres unmarked) [Compound 333] | < 50
Cc1cc(-c2n[nH]c3cc4c(cc23)CN(CC2CCOCC2)C(=O)N4)cc(C)n1 [Compound 250] | < 50
Cc1cc(-c2n[nH]c3cc4c(cc23)CN([C@@H]2CCN(CC3CCCC3)C2)C(=O)N4)ccn1 [Compound 206] | 250 to 1000
CC(c1ccccc1)c1cc2cc3c(N4CCOCC4)n[nH]c3cc2[nH]c1=O (centres unmarked) [Compound 345] | < 50
Cc1cc(-c2n[nH]c3cc4c(cc23)CN(C2CCCCC2)C(=O)N4)ccn1 [Compound 204] | < 50
Cc1cc(-c2n[nH]c3cc4c(cc23)CN([C@H]2CCN(Cc3ccccc3)C2)C(=O)N4)ccn1 [Compound 301] | < 50
Cc1cc(-c2n[nH]c3cc4c(cc23)CN(Cc2cc(F)cc(F)c2)C(=O)N4)cc(C)n1 [Compound 225] | < 50
